Values of other authors as cited in patent US20250161269A1 (Celmatix Inc., priority 2022, published 2025).
Where two headings read alike, the source gives them in different places.

Columns and labels:
[1] = molecular target: T1, MT2 (Homo sapiens, UniProt P49286); details: cited from earlier work
T1 sequence (P49286 1-362): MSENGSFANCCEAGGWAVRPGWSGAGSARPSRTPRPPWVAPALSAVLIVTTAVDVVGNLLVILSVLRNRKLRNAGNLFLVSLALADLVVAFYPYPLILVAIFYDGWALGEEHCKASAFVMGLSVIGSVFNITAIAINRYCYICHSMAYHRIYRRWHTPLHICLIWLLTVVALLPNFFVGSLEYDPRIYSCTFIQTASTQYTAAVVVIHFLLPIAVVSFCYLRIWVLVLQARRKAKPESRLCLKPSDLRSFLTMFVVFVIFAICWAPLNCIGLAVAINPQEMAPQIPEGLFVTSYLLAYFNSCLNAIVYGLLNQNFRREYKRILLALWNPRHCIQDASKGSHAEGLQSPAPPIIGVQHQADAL

[2] = molecular target: T2, MT1 (Homo sapiens, UniProt P48039); details: cited from earlier work
T2 sequence (P48039 whole entry): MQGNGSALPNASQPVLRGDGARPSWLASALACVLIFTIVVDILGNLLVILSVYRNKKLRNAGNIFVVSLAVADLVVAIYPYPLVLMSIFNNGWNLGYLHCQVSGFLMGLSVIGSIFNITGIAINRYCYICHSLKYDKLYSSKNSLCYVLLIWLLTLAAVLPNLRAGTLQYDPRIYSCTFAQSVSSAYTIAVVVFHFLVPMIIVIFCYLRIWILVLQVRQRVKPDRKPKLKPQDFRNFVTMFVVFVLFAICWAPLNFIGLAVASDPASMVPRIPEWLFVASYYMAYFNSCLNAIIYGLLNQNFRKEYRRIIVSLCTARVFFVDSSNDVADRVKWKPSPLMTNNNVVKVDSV

[3] = molecular target: T1, MT2; parameters: host or cells: CHO-K1 cells (as the earlier reading words it); details: CHO-K1 cells; cited from earlier work
[4] = molecular target: T2, MT1; parameters: host or cells: CHO-K1 cells (as the earlier reading words it); details: CHO-K1 cells; cited from earlier work
[5] = molecular target: 5-HT2B receptor (Homo sapiens, UniProt P41595); details: antagonist; cited from earlier work
5-HT2B receptor, sequence (P41595 whole entry): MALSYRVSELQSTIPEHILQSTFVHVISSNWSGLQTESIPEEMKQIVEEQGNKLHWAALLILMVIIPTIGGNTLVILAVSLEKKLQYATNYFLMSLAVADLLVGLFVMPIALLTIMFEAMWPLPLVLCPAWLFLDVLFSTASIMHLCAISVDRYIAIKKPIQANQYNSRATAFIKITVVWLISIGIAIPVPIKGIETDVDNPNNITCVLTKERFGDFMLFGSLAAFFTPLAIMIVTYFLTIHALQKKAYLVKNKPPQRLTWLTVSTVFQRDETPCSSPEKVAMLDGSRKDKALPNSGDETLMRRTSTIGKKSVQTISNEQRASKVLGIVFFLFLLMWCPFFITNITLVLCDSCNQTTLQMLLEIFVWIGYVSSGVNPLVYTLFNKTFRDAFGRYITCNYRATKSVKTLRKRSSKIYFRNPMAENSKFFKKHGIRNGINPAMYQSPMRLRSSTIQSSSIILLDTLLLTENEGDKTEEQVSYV

[6] = system: macrophages (RAW264.7 or primary cells); details: macrophages treated with LPS; cited from earlier work
[7] = system: endometriosis lesion; details: animals; cited from earlier work
[8] = in vivo; cited from earlier work
[9] = system: PCOS patients; details: PCOS patients or patients with metabolic disturbances; cited from earlier work
[10] = system: PCOS animal models; details: cited from earlier work
[11] = molecular target: serum albumin (Homo sapiens, UniProt P02768); details: peripheral circulation; cited from earlier work
serum albumin, sequence (P02768 25-609): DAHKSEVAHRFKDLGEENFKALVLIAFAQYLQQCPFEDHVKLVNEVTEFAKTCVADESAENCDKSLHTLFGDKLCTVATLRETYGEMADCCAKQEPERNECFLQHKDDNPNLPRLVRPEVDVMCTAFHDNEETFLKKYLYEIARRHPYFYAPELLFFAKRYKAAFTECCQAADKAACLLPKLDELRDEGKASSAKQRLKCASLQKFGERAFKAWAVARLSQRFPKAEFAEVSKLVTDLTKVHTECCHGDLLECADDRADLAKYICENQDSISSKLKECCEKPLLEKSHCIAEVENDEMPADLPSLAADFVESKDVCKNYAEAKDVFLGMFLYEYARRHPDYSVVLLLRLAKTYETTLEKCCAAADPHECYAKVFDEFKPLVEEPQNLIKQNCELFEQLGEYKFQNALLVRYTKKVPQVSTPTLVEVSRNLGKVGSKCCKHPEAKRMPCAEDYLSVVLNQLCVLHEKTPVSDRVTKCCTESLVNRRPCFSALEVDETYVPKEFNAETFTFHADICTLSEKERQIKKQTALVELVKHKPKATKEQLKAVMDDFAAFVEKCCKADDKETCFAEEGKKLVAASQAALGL

[12] = system: chemotherapy tissue damage animal models; details: cited from earlier work
[13] = system: endometriosis patients; details: cited from earlier work
[14] = molecular target: T2, MT1; details: NIH-3T3 cells; cited from earlier work

For `COc1cc2c(C(C)CNC(C)=O)c[nH]c2cc1Cl` (stereo not drawn) [TIK-301, beta-methyl-6-chloromelatonin], the Ki [1] is listed as 0.042 nM and the Ki [2] is listed as 0.081 nM.
For `CCC(=O)NCC[C@@H]1CCc2ccc3c(c21)CCO3` [Ramelteon], the Ki [1] is given as 0.11 nM, the Ki [3] is given as 0.115 nM and the Ki [4] is given as 0.118 nM.
For `COc1ccc2cccc(CCNC(C)=O)c2c1` [Agomelatine], the Ki [5] is given as 660 nM.
In the case of `COc1ccc2[nH]cc(CCNC(C)=O)c2c1` [Melatonin, N-acetyl-5-methoxytryptamine], the “LPS-induced expression of pro-inflammatory molecules (e.g. TNFα, IL1B, IL6, IL8)” value [6] is listed as “reduces their LPS-induced expression”, the endometriosis lesion regression [7] is listed as “promotes endometriosis lesion regression” and the “half-life inside the body” value [8] is listed as 20 to 40 min. The “effect on hyperandrogenism, inflammation, ART outcome, and metabolic function” value [9] was “beneficial effect”, the “metabolic and reproductive traits” value [10] was “improve metabolic and reproductive traits” and the “bound to serum albumin” value [11] was “approximately 70%”. For the same molecule, the “metabolic and reproductive traits” value [12] was “mitigate and protect metabolic and reproductive traits” and the “effect on pelvic pain” value [13] was “beneficial effect”.
In the case of `COc1ccc2[nH]cc(CCNC(=O)c3cc(=O)cco3)c2c1` [Piromelatine], the Ki [1] is given as 0.034 nM and the Ki [2] is given as 0.022 nM.
For `CCC(=O)NC[C@@H]1C[C@H]1c1cccc2c1CCO2` [Tasimelteon], the Ki [14] is given as 0.304 nM, the Ki [2] is given as 0.3 nM and the Ki [3] is given as 0.17 nM. For the same molecule, the Ki [4] was 0.35 nM.
